Read-outs that look alike come from different tables or passages of the source. Starred links: 1 amine or outer side, 2 acyl side, 3 side chain; linkers in the order of their positions; H or OH if unused. Non-standard residues stand in square brackets, D forms with d. Residues, ends and D or L forms follow the SMILES beside them. Groups on a side chain read outwards from the residue. No end group written: not given here. *: point of attachment. C18 diacid = O=C(O)CCCCCCCCCCCCCCCCC(=O)*; C17 diacid = O=C(O)CCCCCCCCCCCCCCCC(=O)*; γGlu = O=C(O)[C@H](CCC(=O)[*:2])N[*:1]; NMeY = CN[C@@H](Cc1ccc(O)cc1)C(=O)O; AEEA = NCCOCCOCC(=O)O; Aib = CC(C)(N)C(=O)O
T1: full-length human GIPR with an N-terminal FLAG tag (human, UniProt P48546 22-466)
T1 sequence (looked up): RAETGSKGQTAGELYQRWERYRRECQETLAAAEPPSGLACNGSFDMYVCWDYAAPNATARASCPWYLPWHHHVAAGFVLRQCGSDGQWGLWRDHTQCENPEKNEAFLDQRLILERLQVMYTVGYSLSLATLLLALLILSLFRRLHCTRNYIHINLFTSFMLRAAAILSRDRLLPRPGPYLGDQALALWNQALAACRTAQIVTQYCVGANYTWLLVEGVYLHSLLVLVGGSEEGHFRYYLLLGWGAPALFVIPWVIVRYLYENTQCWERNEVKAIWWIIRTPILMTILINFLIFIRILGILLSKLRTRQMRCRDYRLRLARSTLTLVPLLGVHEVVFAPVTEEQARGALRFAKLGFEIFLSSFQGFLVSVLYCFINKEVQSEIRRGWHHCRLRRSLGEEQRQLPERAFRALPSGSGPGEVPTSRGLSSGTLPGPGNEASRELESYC


Experiments:
[1] = Dog plasma protein binding (PPB); format: in vitro ADME; conditions: pH 7.4; for fraction unbound: dog serum, read-out: Dog PPB (FUplasma)
Outline: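 Fraction unbound (Fu,plasma) is given as a percentage. It was measured with the method and analysis of the human protein-binding protocol, but using dog serum in place of human serum.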

[2] = physchem
Outline: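 Solubility at pH 7.4 determined by stepwise addition of 200 mM phosphate buffer in 100 μL increments to 3 mg peptide, mixing briefly each time, until no insoluble material remained, then measured by liquid chromatography.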

[3] = Pharmacokinetics in dog after IV and SC dosing; conditions: in vivo
Experimental: Pharmacokinetic (PK) were conducted in dog in order to determine the half-life after IV and SC dosing. The peptide was dissolved in 10% DMSO/0.09% Polysorbate/PBS pH 7.4 to a concentration of 3 nmol/mL and the animal were dose with a volume of 1 mL/kg SC or IV. Blood sample were collected at 0, 0.033, 0.083, 0.25, 0.5, 1, 2, 4, 6, 8, 12, 24, 48, 72, 96, 120, 168, 336 hours for IV dosing and 0.25, 0.5, 1, 2, 4, 6, 8, 12, 24, 48, 72, 96, 120, 168, 336 for SC dosing, EDTA-K2 was used as anticoagulant. The plasma concentration of the peptide was measured using LCMS. Allometric scaling of lipidated peptide pharmacokinetics including T1/2 and MRT is known in the art for rodent to dog and mini pig and to humans. […] See for example, Discovery and Development of Liraglutide and Semaglutide. Knudsen, L. B.; Lau, J. Frontiers in Endocrinology, 2019, vol 10, Article 155.

[4] = Human plasma protein binding (PPB); format: in vitro ADME
Outline: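 Peptides spiked at 1000 nmol/L into pooled human K2-EDTA plasma adjusted to pH 7.4, incubated 30 min at 37 °C, then ultracentrifuged at ~450,000 g, 4 °C for 3 h. Fu derived from LC-MS/MS (MRM) peak area ratios, supernatant versus plasma.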

[5] = molecular target: T2, human GLP-1R (Homo sapiens, UniProt P43220); assay: Human GLP1R agonist activity, intracellular cAMP accumulation; format: cell-based; conditions: HEK-293T cells overexpressing human GLP-1R, 1 hr, read-out: Human GLP1R cAMP EC50, HEK293T
T2 construct: HEK-293T cells overexpressing full-length human GLP-1R; FLAG (N); host or cells: HEK-293T
T2 sequence (P43220 24-463): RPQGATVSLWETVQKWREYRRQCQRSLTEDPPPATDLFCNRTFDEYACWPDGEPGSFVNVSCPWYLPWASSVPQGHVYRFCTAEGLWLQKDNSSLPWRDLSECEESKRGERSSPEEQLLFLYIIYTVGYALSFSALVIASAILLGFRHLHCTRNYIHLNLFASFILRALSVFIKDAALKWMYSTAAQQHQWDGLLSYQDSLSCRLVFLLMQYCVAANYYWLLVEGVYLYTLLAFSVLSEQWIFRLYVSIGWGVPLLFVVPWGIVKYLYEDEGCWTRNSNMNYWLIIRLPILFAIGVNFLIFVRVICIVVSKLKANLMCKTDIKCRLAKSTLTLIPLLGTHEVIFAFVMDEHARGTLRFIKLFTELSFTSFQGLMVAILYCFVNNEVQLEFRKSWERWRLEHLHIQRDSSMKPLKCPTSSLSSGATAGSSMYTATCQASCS
Outline: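 cAMP accumulation is measured by HTRF after a 1 hr, room-temperature, dark exposure of thawed cells (4×10^5 cells/mL in Krebs Ringer buffer) to compound. Activity is scaled between DMSO alone as 0% and 1 nm GLP-1 as 100%.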

[6] = molecular target: human plasma proteins; assay: plasma protein binding, ultracentrifugation, LC-MS/MS
[7] = molecular target: dog plasma proteins; assay: as above
[8] = molecular target: full-length human GLP-1R with an N-terminal FLAG tag (human, UniProt P43220 24-463); assay: cell-based or functional assay
[9] = molecular target: T1, full-length human GIPR with an …; assay: cell-based or functional assay
[10] = IV 3 nmol/kg, read-out: IV T½ (converted)
[11] = SC 3 nmol/kg, read-out: SC MRT 0-last
[12] = judged for once per week (QW) dosing

Molecule	solubility ([2]; pH 7.4) [mg/mL]	Human PPB (FUplasma), fraction unbound in plasma (fraction unbound) [6]	Dog PPB (FUplasma), fraction unbound in plasma (fraction unbound) [7]	Human GLP1R cAMP EC50, HEK293T [8] [nM]	Human GIPR cAMP EC50, HEK293T [9] [nM]	other results
CC[C@H](C)[C@H](NC(=O)[C@H](CO)NC(=O)[C@H](Cc1ccc(O)cc1)NC(=O)[C@H](CC(=O)O)NC(=O)[C@H](CO)NC(=O)[C@@H](NC(=O)[C@H](Cc1ccccc1)NC(=O)[C@@H](NC(=O)CNC(=O)[C@H](CCC(=O)O)NC(=O)C(C)(C)NC(=O)[C@H](Cc1ccc(O)cc1)NC)[C@@H](C)O)[C@@H](C)CC)C(=O)N[C@@H](C)C(=O)N[C@@H](CC(C)C)C(=O)N[C@@H](CC(=O)O)C(=O)N[C@@H](CCCNC(=N)N)C(=O)NC(C)(C)C(=O)N[C@@H](C)C(=O)N[C@@H](CCC(N)=O)C(=O)NC(C)(C)C(=O)N[C@@H](CCCCNC(=O)COCCOCCNC(=O)COCCOCCNC(=O)CC[C@H](NC(=O)CC[C@H](NC(=O)CCCCCCCCCCCCCCCCC(=O)O)C(=O)O)C(=O)O)C(=O)N[C@@H](Cc1ccccc1)C(=O)N[C@H](C(=O)N[C@@H](CC(N)=O)C(=O)N[C@@H](Cc1c[nH]c2ccccc12)C(=O)N[C@@H](CC(C)C)C(=O)N[C@@H](CC(C)C)C(=O)N[C@@H](C)C(=O)N[C@@H](CCC(N)=O)C(=O)N[C@@H](CCCCN)C(=O)NCC(=O)O)C(C)C [Compound 41, Me-Y-Aib-E-G-T-F-I-S-D-Y-S-I-A-L-D-R-Aib-A-Q-Aib-Km-F-V-N-W-L-L-A-Q-K-G-OH] (H-[NMeY][Aib]EGTFISDYSIALDR[Aib]AQ[Aib]K([AEEA-AEEA-γGlu-γGlu-C18 diacid])FVNWLLAQKG-OH)	≥ 15					fraction unbound [1]: 0.0007; half-life [3, 10]: 115 h; MRT last [3, 11]: 119 h; Human PPB (FUplasma) ([4]; fraction unbound, human plasma, 1000 nmol/L peptide, ultracentrifugation): <0.002; free unbound peptide in human plasma (in words) [4, 12]: optimum free unbound peptide
CC[C@H](C)[C@H](NC(=O)[C@H](CO)NC(=O)[C@H](Cc1ccc(O)cc1)NC(=O)[C@H](CC(=O)O)NC(=O)[C@H](CO)NC(=O)[C@@H](NC(=O)[C@H](Cc1ccccc1)NC(=O)[C@@H](NC(=O)CNC(=O)[C@H](CCC(=O)O)NC(=O)C(C)(C)NC(=O)[C@H](Cc1ccc(O)cc1)NC)[C@@H](C)O)[C@@H](C)CC)C(=O)N[C@@H](C)C(=O)N[C@@H](CC(C)C)C(=O)N[C@@H](CC(=O)O)C(=O)N[C@@H](CCCNC(=N)N)C(=O)NC(C)(C)C(=O)N[C@@H](CCCCNC(=O)COCCOCCNC(=O)COCCOCCNC(=O)CC[C@H](NC(=O)CC[C@H](NC(=O)CCCCCCCCCCCCCCCCC(=O)O)C(=O)O)C(=O)O)C(=O)N[C@@H](CCC(N)=O)C(=O)NC(C)(C)C(=O)N[C@@H](CC(N)=O)C(=O)N[C@@H](Cc1ccccc1)C(=O)N[C@H](C(=O)N[C@@H](CC(N)=O)C(=O)N[C@@H](Cc1c[nH]c2ccccc12)C(=O)N[C@@H](CC(C)C)C(=O)N[C@@H](CC(C)C)C(=O)N[C@@H](C)C(=O)N[C@@H](CCC(N)=O)C(=O)N[C@@H](CO)C(=O)N1CCC[C@H]1C(=O)N[C@@H](CO)C(=O)N[C@@H](CO)C(=O)NCC(=O)N[C@@H](C)C(=O)N1CCC[C@H]1C(=O)N1CCC[C@H]1C(=O)N1CCC[C@H]1C(=O)N[C@@H](CO)C(N)=O)C(C)C [Compound 293, Me-Y-Aib-E-G-T-F-I-S-D-Y-S-I-A-L-D-R-Aib-Km-Q-Aib-N-F-V-N-W-L-L-A-Q-S-P-S-S-G-A-P-P-P-S-NH2] (H-[NMeY][Aib]EGTFISDYSIALDR[Aib]K([AEEA-AEEA-γGlu-γGlu-C18 diacid])Q[Aib]NFVNWLLAQSPSSGAPPPS-NH2)	≥ 15					fraction unbound at 30 min, 1000 nmol/L ([1]; dog, serum): < 0.002; solubility ([2]; pH 7.4, aqueous buffer): ≥ 30 mg/mL; half-life ([3]; iv, 3 nmol/kg): 68 h; MRT last ([3]; sc, 3 nmol/kg): 83 h; fraction unbound at 30 min, 1000 nmol/L ([4]; both sexes, human, plasma, pH 7.4): < 0.002; free unbound peptide in human plasma (in words) ([4]; human, plasma): optimum free unbound peptide
CC[C@H](C)[C@H](NC(=O)[C@H](Cc1ccccc1)NC(=O)[C@@H](NC(=O)CNC(=O)[C@H](CCC(=O)O)NC(=O)C(C)(C)NC(=O)[C@H](Cc1ccc(O)cc1)NC)[C@@H](C)O)C(=O)N[C@@H](CO)C(=O)N[C@@H](CC(=O)O)C(=O)N[C@@H](Cc1ccc(O)cc1)C(=O)N[C@@H](CO)C(=O)N[C@H](C(=O)NC(C)(C)C(=O)N[C@@H](CCCCNC(=O)CNC(=O)CNC(=O)CNC(=O)CNC(=O)CNC(=O)CCCCCCCCCCCCCCCCC(=O)O)C(=O)N[C@@H](CC(=O)O)C(=O)N[C@@H](CCCNC(=N)N)C(=O)NC(C)(C)C(=O)N[C@@H](C)C(=O)N[C@@H](CCC(N)=O)C(=O)NC(C)(C)C(=O)N[C@@H](CC(=O)O)C(=O)N[C@@H](Cc1ccccc1)C(=O)N[C@H](C(=O)N[C@@H](CC(N)=O)C(=O)N[C@@H](Cc1c[nH]c2ccccc12)C(=O)N[C@@H](CC(C)C)C(=O)N[C@@H](CC(C)C)C(=O)N[C@@H](C)C(=O)N[C@@H](CCC(N)=O)C(=O)N[C@@H](CCCNC(=N)N)C(=O)NCC(=O)O)C(C)C)[C@@H](C)CC [Compound 294, Me-Y-Aib-E-G-T-F-I-S-D-Y-S-I-Aib-Km-D-R-Aib-A-Q-Aib-D-F-V-N-W-L-L-A-Q-R-G-OH]	≥ 15					fraction unbound [1]: 0.0111; solubility ([2]; pH 7.4, aqueous buffer): ≥ 30 mg/mL; EC50 [5]: 38.9 nM; half-life [3, 10]: 59 h; MRT last [3, 11]: 97 h; fraction unbound ([4]; both sexes, pH 7.4, fraction unbound, human plasma, 1000 nmol/L peptide, ultracentrifugation, read-out: Human PPB (FUplasma)): < 0.002; free unbound peptide in human plasma (in words) [4, 12]: optimum free unbound peptide
[NMeY][Aib]EGTFISDYSIALDR[Aib]AQ[Aib]K([AEEA-AEEA-γGlu-γGlu-C18 diacid])FVNWLLAQKG-OH [Compound No. 41]		< 0.002	0.0007			
[NMeY][Aib]EGTFISDYSIALDR[Aib]HQ[Aib]NFVNWLLAK([AEEA-AEEA-γGlu-γGlu-C18 diacid])R-NH2 [Compound No. 19]		0.0011	0.0005			
[NMeY][Aib]EGTFISDYSI[Aib]LDR[Aib]AQ[Aib]NFVNWLLAQK([AEEA-AEEA-γGlu-γGlu-C17 diacid])PSSGAPPPS-NH2 [Compound No. 16]		< 0.0012	< 0.00116	35.1	0.0004	
[NMeY][Aib]EGTFISDYSI[Aib]LDRK([AEEA-AEEA-γGlu-γGlu-C17 diacid])AQ[Aib]NFVNWLLAQRPSSGAPPPS-NH2 [Compound No. 15]		0.0017	0.0021	35.9	0.0003	
[NMeY][Aib]EGTFISDYSI[Aib]LDR[Aib]AQ[Aib]K([AEEA-AEEA-γGlu-γGlu-C17 diacid])FVNWLLAQRPSSGAPPPS-NH2 [Compound No. 13]		< 0.002	< 0.002	49	0.0004	
[NMeY][Aib]EGTFISDYSI[Aib]LDR[Aib]AQ[Aib]NFVNWLLAQK([AEEA-AEEA-γGlu-γGlu-C18 diacid])PSSGAPPPS-NH2 [Compound No. 27]		0.0013	< 0.002	87.1	0.0004	

From patent publication US20230143604A1, “QW DOSING OF GIP RECEPTOR AGONIST PEPTIDE COMPOUNDS AND USES THEREOF” (TAKEDA PHARMACEUTICAL COMPANY LIMITED, priority 2020, published 2023)
